Reference: patent publication US5589568A (priority 1994, dated 1996)
Where a SMILES comes first, the peptide text is derived from it. Where no end group is shown, it is not given here. The star is where a group is joined. Dodecyl = CCCCCCCCCCCC*

Assays:
[1] = target: T1, Go (Bos taurus, UniProt P08239); experiment: steady state GTPase activity of Go in phospholipid vesicles; assay type: biochemical, bovine; settings: Table VI, receptor-based peptides
T1 construct: proteins were extracted from bovine cerebral cortical membranes; from tissue; host or cells: bovine brain (cerebral cortical membranes)
T1 sequence (P08239 2-354 limits assumed): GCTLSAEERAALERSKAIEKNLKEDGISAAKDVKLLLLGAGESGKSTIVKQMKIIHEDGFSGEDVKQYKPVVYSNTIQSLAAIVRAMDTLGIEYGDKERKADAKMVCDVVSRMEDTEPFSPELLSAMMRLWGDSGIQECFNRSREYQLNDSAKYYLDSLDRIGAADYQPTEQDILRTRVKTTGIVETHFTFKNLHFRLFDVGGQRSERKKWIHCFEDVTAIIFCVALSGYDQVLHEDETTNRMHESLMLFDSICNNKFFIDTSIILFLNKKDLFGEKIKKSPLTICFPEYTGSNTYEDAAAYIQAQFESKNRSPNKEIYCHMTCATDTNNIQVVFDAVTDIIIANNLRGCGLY
T1 sequence (P62871 2-340 partner limits assumed): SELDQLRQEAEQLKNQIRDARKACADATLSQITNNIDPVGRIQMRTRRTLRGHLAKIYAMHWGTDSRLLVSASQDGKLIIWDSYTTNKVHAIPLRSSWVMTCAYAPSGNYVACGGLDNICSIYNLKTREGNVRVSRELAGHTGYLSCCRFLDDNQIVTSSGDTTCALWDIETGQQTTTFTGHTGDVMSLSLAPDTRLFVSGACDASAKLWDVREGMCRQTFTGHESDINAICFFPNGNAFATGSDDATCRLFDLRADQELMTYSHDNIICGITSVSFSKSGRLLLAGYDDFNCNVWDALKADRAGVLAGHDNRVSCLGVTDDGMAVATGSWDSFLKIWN
T1 sequence (P63212 2-68 partner limits assumed): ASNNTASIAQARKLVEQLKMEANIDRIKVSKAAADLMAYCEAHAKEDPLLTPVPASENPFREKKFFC
Excerpt: (§1) G proteins were reconstituted into phospholipid vesicles composed of dioleoyl-PC/bovine brain PS/1-palmitoyl,2-oleoyl-PE (3:4:3) as reported previously by Higashijima et al., 1988, incorporated herein by reference.

[2] = system: Gi; experiment: steady state GTPase activity of Gi in phospholipid vesicles;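 for all read-outs here: Steady-state GTP hydrolysis by Gi measured in a detergent-free buffer containing 1.1 mM MgSO4 plus the specified guanine nucleotide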; assay type: biochemical, rabbit; settings: Table VI, receptor-based peptides; for EC50: read-out: Gi af. (apparent affinity, estimated by EC50 of GTPase activity)
Procedure: as §1
The concentration of free Mg^2+ in assay medium that contains 5 mM EDTA and no added Mg^2+ is estimated to be 0.1-0.2 nM according to Brandt et al., 1988 and 1983.

[3] = target: Gs (Homo sapiens, UniProt P63092); experiment: steady state GTPase activity of Gs; assay type: biochemical; settings: Table VI, receptor-based peptides
Gs, sequence (P63092 whole entry): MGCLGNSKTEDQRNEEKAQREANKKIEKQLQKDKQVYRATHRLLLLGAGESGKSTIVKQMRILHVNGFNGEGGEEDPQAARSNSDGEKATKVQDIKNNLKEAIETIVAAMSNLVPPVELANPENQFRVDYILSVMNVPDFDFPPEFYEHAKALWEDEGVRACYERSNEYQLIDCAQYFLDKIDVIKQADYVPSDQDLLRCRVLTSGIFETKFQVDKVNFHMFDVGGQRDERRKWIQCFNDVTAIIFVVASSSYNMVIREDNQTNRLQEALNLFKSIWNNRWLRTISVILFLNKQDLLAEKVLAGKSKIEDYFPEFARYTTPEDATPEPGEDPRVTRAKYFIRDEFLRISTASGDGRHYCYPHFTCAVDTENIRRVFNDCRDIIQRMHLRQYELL
Procedure: Methods for the assay of steady state GTP hydrolysis and GTPγS binding have been described previously by Higashijima, 1987, and Ferguson, 1986, and incorporated herein by reference. Unless noted otherwise, assays of steady state GTP hydrolysis and of the binding and dissociation of guanine nucleotides were carried out in the buffer described previously, but without detergent and with 1.1 mM MgSO4 and the nucleotide specified in the text. When necessary, the concentration of free Mg^2+ was adjusted using EDTA buffers as described previously by Higashijima, 1987, and incorporated herein by reference.
The data set forth in the following tables represent data generated by the inventors employing the steady state GTP hydrolysis, expressed as molar turnover numbers, are described herein under the "Assay" section of the Experimental Procedures in Example 1. The data has been classified according to the criteria outlined below and the effects of each peptide and modified variant on Go, Gi, and Gs have been tabulated. Table III below sets forth data generated for various mastoparan analogues designed by the inventors, in comparison with the various naturally-occurring mastoparans (e.g., MP, MP-A and MP-T). Table IV sets forth similar data generated for various receptor-based peptides designed by the inventors based on a consideration of various G-protein linked receptors.
Apparent affinity (af.) and apparent efficacy (ef.) were estimated by EC50 and maximum turnover number of GTPase activity.

Compound	Go ef. (apparent efficacy, maximum turnover number of GTPase activity) [1]	Gi ef. (apparent efficacy, maximum turnover number of GTPase activity) [2]	EC50 [2] [µM]	Gs ef. (apparent efficacy, maximum turnover number of GTPase activity) [3]
CCCCCCCCCCCCSC[C@H](N)C(=O)N1CCC[C@H]1C(=O)N[C@@H](Cc1ccccc1)C(=O)N[C@@H](CCCNC(=N)N)C(=O)N[C@@H](Cc1ccc(O)cc1)C(=O)N[C@@H](CCC(N)=O)C(=O)N[C@@H](CO)C(=O)N[C@@H](CC(C)C)C(=O)N[C@@H](CCSC)C(=O)N[C@H](C(=O)N[C@@H](CCCNC(=N)N)C(=O)N[C@@H](C)C(=O)N[C@@H](CCCNC(=N)N)C(=O)N[C@@H](C)C(=O)N[C@@H](CCCCN)C(=O)N[C@H](C(=O)N[C@H](C(N)=O)[C@@H](C)CC)C(C)C)[C@@H](C)O [C12-ER39] (H-C(Dodecyl)PFRYQSLMTRARAKVI-NH2; N-terminus assumed)	G (Good (G): 5-10 fold)	G (Good (G): 5-10 fold)	3 to 10	F (Fair (F): 2-5 fold)
CPFRYQSLNTRARAKVI-NH2 [ER39]	F (Fair (F): 2-5 fold)	P (Poor (P): less than 2 fold)	> 100	F (Fair (F): 2-5 fold)
